Reference: PMC9820592, “Novel Chiral Ru(II) Complexes as Potential c-myc G-quadruplex DNA Stabilizers Inducing DNA Damage to Suppress Triple-Negative Breast Cancer Progression” (International Journal of Molecular Sciences, 2022)

Tests used:
[1] = tested on: MDA-MB-231 cells; test: ICP detection of Ru content in cells; format: cell-based, human; settings: 24 h, control 0.4
Procedure: MDA-MB-231 cells were seeded in 10 cm cell culture dishes. After cell adherence, the cells were treated with the drug (0, 2.5, 5, and 10 μM) for 24 h. After 24 h, the cells were washed with PBS three times and collected by trypsin. The number of collected cells was counted by a cell counter. Then, the cells were digested in 1 mL HNO3 solution by microwave digestion at 120 °C for 3 min, and 1 mL of this solution was transferred to a 5 mL volumetric flask, diluted with distilled water to volume, and mixed. The Ru content of these solutions was analyzed by an ICP optical emission spectrometer (NCS, Plasma 2000). All measurements were repeated three times.

[2] = tested on: MDA-MB-231 cells; test: EdU proliferation assay; format: cell-based, human; settings: control 50.2%
Procedure: The inhibitory effect of the chiral DPPZ-based Ru(II) complexes (Λ/Δ−1−3) was assessed against different human tumor cancer cells, such as breast cancer MCF-7, MDA-MB-231, lung cancer A549, liver carcinoma HepG2, nasopharyngeal carcinoma CNE-1, and human normal keratinocyte HaCaT cells, by MTT assay. […] Moreover, the inhibition of MDA-MB-231 cell proliferation by Δ−3 was detected by using an EdU (5-ethynyl-2′-deoxyuridine) staining kit, and EdU was incorporated into newly synthesized DNA in the sample cells. The red fluorescent azide is small enough to diffuse freely through native tissues and DNA, and it covalently cross-links to the EdU in a “click” chemistry reaction.

[3] = tested on: c-myc G-quadruplex DNA; test: PCR-stop assay; format: biochemical, human; settings: Taq polymerase
Procedure: In this study, c-myc G4 DNA and its reverse complementary sequence c-myc rev were heated to 95 °C for 5 min, allowed to cool to room temperature, and incubated at 4 °C overnight. The system was supplemented with dNTPs and Taq polymerase for PCR amplification; heated at 95 °C for 3 min, 94 °C for 30 s, and 58 °C for 30 s, with an extension at 72 °C for 30 s (30 cycles); and analyzed by 15% nondenatured polyacrylamide gel electrophoresis and silver staining.

[4] = tested on: c-myc G-quadruplex DNA; test: FRET melting assay; format: binding, human; settings: free DNA Tm 59.5 °C
Procedure: Carboxy fluorescein (FAM) and 6-carboxytetramethyl rhodamine (TAMRA) double fluorescent-labeled c-myc G4 DNA (5′−FAM-TGAGGGTGGGAGGGGTAA-TAMRA−3′) were heated to 95 °C in Tris-HCl-KCl buffer (containing 10 mM Tris-HCl, 100 mM KCl, pH 7.4) for 5 min and slowly cooled to room temperature. To ds26, double-stranded DNA ([…]) is a competitive binder, research Λ/Δ−3 with c-myc G4 selectivity binding ability of DNA. A Bio-Radiq5 real-time PCR detection system was used to measure the fluorescence melting curve. Approximately 1 μM (5 μL) FPU22T was mixed with a series of 5 μL compound solutions of different concentrations, and 15 μLTris-HCl-KCl buffer was added to the PCR 8 tube to obtain a total volume of 25 μL. A real-time fluorescence quantitative PCR instrument was used, and incubation was performed at 30 °C for 30 min. The program temperature range was set to 30–95 °C at a temperature interval of 1 °C, and recording was performed after balancing for 30 s to detect the fluorescence value of FAM. The conditions of the reaction system were similar to those of the FRET melting point test except that different concentrations of ds26 were added.

[5] = tested on: γ-H2AX; test: γ-H2AX immunofluorescence; format: cell-based, human
Procedure: MDA-MB-231 cells were inoculated in a 6-well plate containing a cover glass. On the second day, the cells were treated with different concentrations of the complex (0, 5, and 10 μM) for 24 h. The cells were fixed with 4% paraformaldehyde for 20 min, and then blocked with 5% BSA for 0.5 h at room temperature. The 1:500 anti-γH2AX antibody was diluted with 5% FBS and incubated for 1 h. The cells were incubated with lgG (H + L) for 0.5 h and treated with DAPI for 5 min. The cover glass was then transferred to a specified microscope slide and photographed with laser confocal microscopy. The antibodies used in immunofluorescence to determine invasion and metastasis were anti-paxillin antibody (ab32115), Fluor 488-conjugated IgG (H + L) (Proteintech), and rhodamine phalloidin (Amanita phalloidin, cytoskeleton).

[6] = tested on: MDA-MB-231 cells; test: Flow cytometry, apoptosis (Annexin V-FITC/PI); format: cell-based, human; settings: 72 h, control 2.77%
Procedure: MDA-MB-231 cells were treated with different concentrations of the complexes (0, 10, 20, and 40 μM) for 72 h, then collected and stained with an Annexin V-FITC/PI Apoptosis Detection Kit I (BD, 556547). The MDA-MB-231 cells were fixed with 70% ethanol at 4 °C for 30 min, and then collected and stained with PI/RNase Staining Buffer (BD, 550825). The cells were analyzed by flow cytometry (Beckman, CytoFLEX). All experiments were repeated three times.

[7] = tested on: HUVECs; test: Tube formation assay; format: cell-based, human; settings: 10 μM, 6 h, VEGF 200 ng/mL
Procedure: Dissolving matrigel (4 °C, 24 h) was used to coat prechilled 96-well plates (50 μL/well, 37 °C, for at least 60 min). Then, the unsolid fluid was removed, and HUVECs at the density of 3 × 10^4 were cultured in DMEM with VEGF (200 ng/mL) containing the different concentrations of Δ−3 (0, 5, and 10 μM) for 6 h.

[8] = tested on: MCF-7 cells; test: MTT assay, MCF-7 cells; format: cell-based, human; settings: 72 h, read-out: Inhibitory Effect (IC50/μM) MCF-7
Procedure: Liver cancer HepG2 cells, lung cancer A549 cells, breast cancer MCF-7 and MDA-MB-231 cells, human nasopharyngeal carcinoma CNE-1 cells, and human immortalized keratinocyte HaCaT cells were seeded in 96-well plates (5 × 10^3 cells per well) and cultured at 37 °C and 5% CO2 for 24 h. Cells were treated with different concentrations of the complexes (0, 1.5625, 3.125, 6.25, 12.5, 25, 50, and 100 µM) for 72 h. After adding 20 µL MTT (5 mg/mL) solution to each well, the cells were incubated for 4 h, and then 150 µL DMSO was added to each well. The optical density of each well was detected by a microplate reader at a wavelength of 570 nm. The cell survival rate (%) = A(experimental group)/A(control group) × 100%, and the IC50 value was analyzed and calculated based on the survival rate.

Ru content in cells ([1]; 2.5 μM): 0.52 ng/mL per 1 × 10^4 cells | Ru content in cells ([1]; 5 μM): 1.82 ng/mL per 1 × 10^4 cells | Ru content in cells ([1]; 10 μM): 2.91 ng/mL per 1 × 10^4 cells | IC50 [8]: 90.6 ± 6.34 µM
Substance: Δ-[Ru(bpy)2(3-NBEDPPZ)](ClO4)2 [Δ−3]
proliferation rate (EdU) ([2]; 10 μM): 34.9% | proliferation rate (EdU) ([2]; 20 μM): 22.0% | proliferation rate (EdU) ([2]; 40 μM): 5.1% | minimum concentration necessary for effective inhibition (PCR products) [3]: 2.5 µM | ΔTm ([4]; complex 0.5 μM): approximately 3.5 °C | ΔTm ([4]; complex 1.0 μM): ~7.2 °C | γ-H2AX production ([5]; 5 μM): Green fluorescence was observed | γ-H2AX production ([5]; 10 μM): the DNA damage was serious | proportion of apoptotic cells ([6]; 10 μM): 5.39% | proportion of apoptotic cells ([6]; 20 μM): 7.95% | proportion of apoptotic cells ([6]; 40 μM): 16.27% | tubular structures of HUVECs on Matrigel [7]: sparse and incomplete
